What was measured:
[1] = test system: J774; experiment: Cytotoxicity against mouse J774 cells assessed as reduction in cell viability after 48 hrs; assay type: functional, cell-based; conditions: J774, 48 h
[2] = Inhibition of RGGT assessed as [3H]GGPP incorporation into Rab1a protein after 30 mins
[3] = Inhibition of RGGT in cell-based assay assessed as inhibition of Rab11 prenylation after 24 hrs by Western blot analysis

Structure (SMILES)	IC50 [1]	IC50 [2]	LED [3]
O=C(O)C(O)(Cc1cnc2ccccn12)P(=O)(O)O (racemic) [(2-HYDROXY-3-IMIDAZO[1,2-A]PYRIDIN-3-YL-2-PHOSPHONOPROPIONIC ACID (ENANTIONMERS)]	50 µM	1.24 µM	3 µM
O=C(O)C(Cl)(Cc1cnc2ccccn12)P(=O)(O)O (racemic)	> 400 µM	7.5 µM	12 µM
O=C(O)C(Br)(Cc1cnc2ccccn12)P(=O)(O)O (racemic)	> 600 µM	5.56 µM	25 µM
O=C(O)C(F)(Cc1cnc2ccccn12)P(=O)(O)O (stereo not given)	60 µM	6.11 µM	6 µM
O=C(O)C(Cc1cnc2ccccn12)P(=O)(O)O (racemic)	> 600 µM	13.4 µM	12 µM

Reference: ChEMBL document CHEMBL1828594, “Synthesis, stereochemistry and SAR of a series of minodronate analogues as RGGT inhibitors” (Eur J Med Chem, 2011)
